Test results as given in PubChem BioAssay AID2060356 (Molecular Pharmacology Branch, DTP, NCI, 2025).

Tested on: PDC tumor spheroids with HUVEC/MSC, viability
Test: Anticancer human tumor 439559-082-T-J2-PDC patient-derived colon adenocarcinoma cell line growth inhibition [TAK]
Details: for IC50: curve of first compound; for viability, T/C: stronger effect = lower value; active means viability on the fitted dose curve at most 10% of control; inactive means the rest
Procedure, shortened: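 Drug combinations, each paired with TAK-243 or ipatasertib, were tested on multi-cell spheroids of 60% malignant cells, 25% HUVEC and 15% hMSC. Top concentrations were at or near the clinical Cmax (10 microM if undetermined), decreasing by half-log; viability is given as % test/control.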
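Further: spheroids exposed to drugs for seven days before readout.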

CC(C)CC(NC(=O)C(Cc1ccccc1)NC(=O)c1cnccn1)B(O)O (stereo not given) + CC(C)NCC(C(=O)N1CCN(c2ncnc3c2C(C)CC3O)CC1)c1ccc(Cl)cc1
> 10 nM: IC50 (second compound 0.3 µM) | IC50 (second compound 0.949 µM) | IC50 (second compound 3 µM) | IC50 (second compound 9.49 µM) | IC50 (second compound 30 µM)
inactive: viability, T/C (second compound 0.3 µM, first compound 31.6 pM) 112% | viability, T/C (second compound 0.3 µM, first compound 0.0001 µM) 94.2% | viability, T/C (second compound 0.3 µM, first compound 0.000316 µM) 96.6% | viability, T/C (second compound 0.3 µM, first compound 0.001 µM) 97.7% | viability, T/C (second compound 0.3 µM, first compound 0.00316 µM) 97.7% | viability, T/C (second compound 0.3 µM, first compound 0.01 µM) 80.3% | viability, T/C (second compound 0.949 µM, first compound 31.6 pM) 105% | viability, T/C (second compound 0.949 µM, first compound 0.0001 µM) 107% | viability, T/C (second compound 0.949 µM, first compound 0.000316 µM) 92.5% | viability, T/C (second compound 0.949 µM, first compound 0.001 µM) 105% | viability, T/C (second compound 0.949 µM, first compound 0.00316 µM) 93.2% | viability, T/C (second compound 0.949 µM, first compound 0.01 µM) 74% | viability, T/C (second compound 3 µM, first compound 31.6 pM) 102% | viability, T/C (second compound 3 µM, first compound 0.0001 µM) 98.2% | viability, T/C (second compound 3 µM, first compound 0.000316 µM) 93% | viability, T/C (second compound 3 µM, first compound 0.001 µM) 102% | viability, T/C (second compound 3 µM, first compound 0.00316 µM) 89.3% | viability, T/C (second compound 3 µM, first compound 0.01 µM) 70% | viability, T/C (second compound 9.49 µM, first compound 31.6 pM) 93.3% | viability, T/C (second compound 9.49 µM, first compound 0.0001 µM) 97.6% | viability, T/C (second compound 9.49 µM, first compound 0.000316 µM) 92.9% | viability, T/C (second compound 9.49 µM, first compound 0.001 µM) 84.4% | viability, T/C (second compound 9.49 µM, first compound 0.00316 µM) 85.5% | viability, T/C (second compound 9.49 µM, first compound 0.01 µM) 69.3% | viability, T/C (second compound 30 µM, first compound 31.6 pM) 85.8% | viability, T/C (second compound 30 µM, first compound 0.0001 µM) 98.5% | viability, T/C (second compound 30 µM, first compound 0.000316 µM) 87.3% | viability, T/C (second compound 30 µM, first compound 0.001 µM) 89.2% | viability, T/C (second compound 30 µM, first compound 0.00316 µM) 86% | viability, T/C (second compound 30 µM, first compound 0.01 µM) 69.1%
